# Where no end group is shown, it is not given here.
# Key:
# Meth A sarcoma = assay: Tumor growth inhibition (tumor volume) in solid tumor-bearing mice, subcutaneous administration; assay type: in vivo, BALB/c mice; conditions: for antitumor activity (tumor volume) / order of intensities of the antitumor activity: FIG. 10; for tumor growth inhibiting effect (tumor volume): FIG. 3, days 1 to 11, vs distilled water
# Protocol: Solid tumor-bearing mice were prepared by subcutaneously administering 0.2 ml of Meth A sarcoma cells (5×10^6 cells/ml) into the left flank of five-week-old BALB/c male mice (Japan SLC). After 6 to 10 days from sarcoma implantation, when the diameter of the post-implantation tumor in tumor-bearing mice arrived at 4 mm was taken as day 1 and, on days 1 to 11, distilled water (D.W.) as a control or 20 mg/kg/day of each of the above dendrimers (1) to (3) was subcutaneously administered for 11 consecutive days (4 mice were used in each group).
# The antitumor effect of each dendrimer peptide was evaluated 6 days after implantation and thereafter by examining the tumor growth, the body weight change and the survival time (days) as an indicator of side effect. At the same time, the minor axis and major axis of each tumor were measured and the tumor volume was calculated according to the formula shown below.
# Tumor volume=0.4×a×b^2 (a: major axis, b: minor axis)
# Doses of 10 mg/kg×twice/day and 20 mg/kg×twice/day of the dendrimer peptide derived from the peptide of SEQ ID NO:1 as synthesized in Example 4 (1) and a dose of 20 mg/kg×twice/day of a dendrimer peptide (SEQ ID NO:18) derived from a peptide resulting from replacement of an arbitrary sequence for the sequence shown in SEQ ID NO:1, and distilled water (DW) as a control were subcutaneously administered to mice on days 1 to 10 after tumor cell implantation according to the method of Example 4 (2), and the tumor growth inhibiting activities were examined. Four to six mice per group were subjected to the experiment. The results obtained are shown in FIG. 5 in the same manner as in FIG. 3 (ordinate: tumor volume (cm^3), abscissa: days after tumor cell implantation (days)).
# The three short-chain peptides synthesized and physiological saline as a control were respectively administered subcutaneously to mice on days 1 to 10 following tumor cell implantation according to the method of Example 4 (2), and the tumor growth inhibiting activities were examined. The results obtained are shown in FIG. 6 in the same manner as in FIG. 3.
# (§1) A dose of 20 mg/kg/day of each of the peptides synthesized in the above manner or distilled water (DW) as a control was subcutaneously administered to mice on days 4 to 9 after tumor cell implantation according to the method of Example 4 (2), and the tumor growth inhibiting activities were examined. Three to five mice per group were used in the experiment. The results are shown in FIG. 7 in the same manner as in FIG. 3.
# as §1, with “or physiological saline” for “or distilled water (DW)”, “days 1” for “days 4”, “to 10” for “to 9”, “examined. Four or” for “examined. Three to”, “FIG. 8” for “FIG. 7”
# as §1, with “water” for “water (DW)”, “days 1” for “days 4”, “to 10” for “to 9”, “examined. Five or six” for “examined. Three to five”, “FIG. 9” for “FIG. 7”
# as §1, with “water or physiological saline” for “water (DW)”, “days 1” for “days 4”, “to 10” for “to 9”, “examined. Five or six” for “examined. Three to five”, “FIG. 10 (results with the peptides of SEQ ID NO:28-32) and FIG. 11 (results with the peptides of SEQ ID NO:33-35)” for “FIG. 7”, “3. […]” for “3.”
# [1] = tested on: B16BL6 melanoma tumor tissue; assay: Competitive inhibition experiment using the respective phages and synthetic 8-residue or 5-residue peptides; assay type: in vivo, C57BL/6 mice; conditions: for cross reactivity between phages / inhibitory activity compared with the 15-residue synthetic peptides / inhibition of phage accumulation by 8-residue synthetic peptides: FIG. 1; for inhibition of phage accumulation by 8-residue synthetic peptides: phages expressing the corresponding 15-residue peptides (Nos. 5 and 6); for inhibition of phage accumulation in tumor by 5-residue synthetic peptides: FIG. 2, SEQ ID NO:15 with phage No. 5, SEQ ID NO:16 with phage No. 6
# Protocol: (§2) Thus, 10 days after implantation of B16BL6 melanoma (1×10^6 cells) into five-week-old C57BL/6 mice (obtained from Japan SLC), a mixed solution (0.2 ml) of 0.25 μmol of one of the above synthetic peptides and the respective phage (1×10^8 colony forming units) was administered into the tail vein of each tumor-bearing mouse under anesthesia, and the colony forming units of the phage accumulated in the tumor tissue were counted in a similar manner as mentioned above.
# Using a similar method as described above under (2) and using the four short-chain peptides (SEQ ID NO:13 to 16) obtained as mentioned above under (2) in lieu of the synthetic peptides (SEQ ID NO:5 and 6), the synthetic peptides and the respective phages were administered and colony forming units for the phages accumulated in the tumor tissue were counted, and the short-chain synthetic peptides were evaluated for their inhibitory effect on phage accumulation. In a control group,synthetic peptide-free phage solutions (1×10^8 colony forming units) were administered.
# In each figure, the ordinate denotes the phase accumulation percentage (%) and the abscissa denotes the phage number. In FIG. 1, the open bar is for the group (control group) given the phage alone without administration of any synthetic peptide, the shaded bar is for the group given the short-chain synthetic peptide shown in SEQ ID NO:13 and the closed bar is for the group given the short-chain synthetic peptide shown in SEQ ID NO:14.
# In FIG. 2, the open bar is for the group (control group) given the phage alone without administration of any synthetic peptide, the closed bar is for the group given the short-chain peptide shown in SEQ ID NO:15 (where phage No. 5 was used) and the shaded bar is for the group given the short-chain peptide shown in SEQ ID NO:16 (where phage No. 6 was used).
# [2] = tested on: B16BL6 melanoma tumor tissue; assay: Competitive inhibition experiment using the respective phages and synthetic 15-residue peptides; assay type: in vivo, C57BL/6 mice; conditions: for % Dose/100 mg tissue: tail vein; for inhibitory activity against accumulation of phages Nos. 5 and 6: synthetic peptides with common sequence WRP
# Protocol: The synthetic peptides having the amino acid sequences shown in SEQ ID NO:1, 5 and 6 were respectively administered simultaneously with the phages No. 1, No. 5 and No. 6 in a similar manner as in Example 1 (5). Each peptide was synthesized as in Example 2.
# as §2
# In a control group, synthetic peptide-free phage solutions (1×10^8 colony forming units) were administered.
# Phages accumulated in neovascular tissues in tumor tissues were counted through colony formation, and each synthetic peptide was evaluated for its inhibitory effect on phage accumulation using, as a reference value, the ratio of accumulation of the peptide-expressing phage in tumor without simultaneous administration of the synthetic peptide.
# [3] = FIG. 6, subcutaneously, days 1 to 10, vs physiological saline
# [4] = 20 mg/kg/day subcutaneously, days 1 to 10
# [5] = accumulation of phage No. 1 (1×10^8 cfu) co-administered with 0.25 μmol synthetic peptide
# [6] = accumulation of phage No. 5 (1×10^8 cfu) co-administered with 0.25 μmol synthetic peptide
# [7] = accumulation of phage No. 6 (1×10^8 cfu) co-administered with 0.25 μmol synthetic peptide
# [8] = inhibition of phage No. 1 accumulation in tumor by 0.25 μmol synthetic peptide
# [9] = inhibition of phage No. 5 accumulation in tumor by 0.25 μmol synthetic peptide
# [10] = inhibition of phage No. 6 accumulation in tumor by 0.25 μmol synthetic peptide
substance,measurement,setting,value
SEQ ID NO: 19: 12-Residue peptide containing positions 1 to 8 of SEQ ID NO: 1 (ADGAPRPGAPLA; phage library),tumor growth inhibiting activity (tumor volume),Meth A sarcoma; [3],tendency toward inhibition of tumor growth
SEQ ID NO: 31: 4-Residue peptide comprising positions 10 to 13 of SEQ ID NO: 6 (WRPW; phage library),antitumor activity (tumor volume),Meth A sarcoma; [4],has antitumor activity
same,order of intensities of the antitumor activity,Meth A sarcoma; [4],peptide of SEQ ID NO:28=peptide of SEQ ID NO:29>peptide of SEQ ID NO:30=peptide of SEQ ID NO:31>peptide of SEQ ID NO:32
SEQ ID NO: 13: 8-Residue peptide comprising positions 1 to 8 of SEQ ID NO: 5 (DRWRPALP; phage library),cross reactivity between phages,[1],showed cross reactivity
same,inhibitory activity compared with the 15-residue synthetic peptides,[1],higher in inhibitory activity than the 15-resiude synthetic peptides
same,inhibition of phage accumulation by 8-residue synthetic peptides,[1],inhibited the accumulation of the phages
HWRPW (HWRPW-NH2) [SEQ ID NO: 16],inhibition of phage accumulation in tumor by 5-residue synthetic peptides,[1],inhibit likewise the accumulation in tumor of the phages
ASSSYPLIHWRPWAR (phage library) [SEQ ID NO: 6],% Dose/100 mg tissue,[2]; [5],5.92 × 10^−3 % Dose/100 mg tissue
same,% Dose/100 mg tissue,[2]; [6],3.61 × 10^−3 % Dose/100 mg tissue
same,% Dose/100 mg tissue,[2]; [7],6.43 × 10^−3 % Dose/100 mg tissue
same,Accumulation inhibition %,[2]; [8],55%
same,Accumulation inhibition %,[2]; [9],76%
same,Accumulation inhibition %,[2]; [10],44%
same,inhibitory activity against accumulation of phages Nos. 5 and 6,[2],crosswise inhibitory activity
SEQ ID NO: 14: 8-Residue peptide comprising positions 8 to 15 of SEQ ID NO: 6 (IHWRPWAR; phage library),cross reactivity between phages,[1],showed cross reactivity
same,inhibitory activity compared with the 15-residue synthetic peptides,[1],higher in inhibitory activity than the 15-resiude synthetic peptides
same,inhibition of phage accumulation by 8-residue synthetic peptides,[1],inhibited the accumulation of the phages
"(PRPGAPLAGSWPGTS)8-Lys4-Lys2-Lys-βAla (also: octameric lysine dendrimer (Lys4-Lys2-Lys-βAla core), 8 copies)",tumor growth inhibiting effect (tumor volume),Meth A sarcoma; 20 mg/kg/day subcutaneously,marked tumor growth inhibiting effects
same,tumor growth inhibiting activity (tumor volume),"Meth A sarcoma; FIG. 5, 10 and 20 mg/kg×twice/day subcutaneously, days 1 to 10",dose-dependent tumor growth inhibiting activity
SEQ ID NO: 30: 4-Residue peptide comprising positions 3 to 12 of SEQ ID NO: 5 (WRPA; phage library),antitumor activity (tumor volume),Meth A sarcoma; [4],has antitumor activity
same,order of intensities of the antitumor activity,Meth A sarcoma; [4],peptide of SEQ ID NO:28=peptide of SEQ ID NO:29>peptide of SEQ ID NO:30=peptide of SEQ ID NO:31>peptide of SEQ ID NO:32
SEQ ID NO: 28: 4-Residue peptide comprising positions 2 to 5 of SEQ ID NO: 5 (RWRP; phage library),antitumor activity (tumor volume),Meth A sarcoma; [4],has antitumor activity
same,order of intensities of the antitumor activity,Meth A sarcoma; [4],peptide of SEQ ID NO:28=peptide of SEQ ID NO:29>peptide of SEQ ID NO:30=peptide of SEQ ID NO:31>peptide of SEQ ID NO:32
"(ASSSYPLIHWRPWAR)8-LYs4-Lys2-Lys-βAla (also: octameric lysine dendrimer (Lys4-Lys2-Lys-βAla core), 8 copies)",tumor growth inhibiting effect (tumor volume),Meth A sarcoma; 20 mg/kg/day subcutaneously,marked tumor growth inhibiting effects
SEQ ID NO: 29: 4-Residue peptide comprising positions 9 to 12 of SEQ ID NO: 6 (HWRP; phage library),antitumor activity (tumor volume),Meth A sarcoma; [4],has antitumor activity
same,order of intensities of the antitumor activity,Meth A sarcoma; [4],peptide of SEQ ID NO:28=peptide of SEQ ID NO:29>peptide of SEQ ID NO:30=peptide of SEQ ID NO:31>peptide of SEQ ID NO:32
RWRPA (RWRPA-NH2) [SEQ ID NO: 15],inhibition of phage accumulation in tumor by 5-residue synthetic peptides,[1],inhibit likewise the accumulation in tumor of the phages
PRPGAPLAGSWPGTS (phage library) [SEQ ID NO: 1],% Dose/100 mg tissue,[2]; [5],5.95 × 10^−3 % Dose/100 mg tissue
same,% Dose/100 mg tissue,[2]; [6],1.35 × 10^−2 % Dose/100 mg tissue
same,% Dose/100 mg tissue,[2]; [7],1.14 × 10^−2 % Dose/100 mg tissue
same,Accumulation inhibition %,[2]; [8],55%
same,Accumulation inhibition %,[2]; [9],9%
APRPG (APRPG-NH2) [SEQ ID NO: 17],tumor growth inhibiting activity (tumor volume),Meth A sarcoma; [3],tendency toward inhibition of tumor growth
"(DRWRPALPVVLFPLH)8-Lys4-Lys2-Lys-βAla (also: octameric lysine dendrimer (Lys4-Lys2-Lys-βAla core), 8 copies)",tumor growth inhibiting effect (tumor volume),Meth A sarcoma; 20 mg/kg/day subcutaneously,marked tumor growth inhibiting effects
Trp-Arg-Pro (WRP; phage library) [SEQ ID NO: 32],antitumor activity (tumor volume),Meth A sarcoma; [4],has antitumor activity
same,order of intensities of the antitumor activity,Meth A sarcoma; [4],peptide of SEQ ID NO:28=peptide of SEQ ID NO:29>peptide of SEQ ID NO:30=peptide of SEQ ID NO:31>peptide of SEQ ID NO:32
DRWRPALPVVLFPLH (phage library) [SEQ ID NO: 5],% Dose/100 mg tissue,[2]; [5],6.36 × 10^−3 % Dose/100 mg tissue
same,% Dose/100 mg tissue,[2]; [6],5.08 × 10^−3 % Dose/100 mg tissue
same,% Dose/100 mg tissue,[2]; [7],6.60 × 10^−3 % Dose/100 mg tissue
same,Accumulation inhibition %,[2]; [8],52%
same,Accumulation inhibition %,[2]; [9],66%
same,Accumulation inhibition %,[2]; [10],43%
same,inhibitory activity against accumulation of phages Nos. 5 and 6,[2],crosswise inhibitory activity
same,tumor growth inhibiting activity (tumor volume),"Meth A sarcoma; FIG. 7, 20 mg/kg/day subcutaneously, days 4 to 9",have tumor growth inhibiting activity

# — patent US6753310B1, “Neovascular-specific peptides” (Otsuka Pharmaceutical Co., Ltd., priority 1998, dated 2004)
